Our source for the activity values is publication PMC12305494, “Discovery of PXR Antagonist MI891 and PXR Degrader MI1013 and Their Roles in Hepatic Gene Regulation” (Journal of Medicinal Chemistry, 2025).

Common to all, as to experiment: Off-target kinase panel
What all share (assay type): biochemical
Holding throughout (conditions): MI891 @ 1 µM

The target of experiment [1] is T1, PI3 Kinase (p110a/p85a)(h) (Homo sapiens, UniProt P42336).
T1 construct: purchased Eurofins (Millipore) KinaseProfiler, inferred from the naming style
As for the experimental part: (§1) To evaluate the selectivity of MI891, an off-target profiling study was performed using a panel of 58 kinases.

Experiment [2] has as its target T2, PKG1α(h) (Homo sapiens, UniProt Q13976).
T2 construct: purchased Eurofins (Millipore) KinaseProfiler, inferred from the naming style
As for the experimental part: as §1

For experiment [3], the target named is T3, PRAK(h) (Homo sapiens, UniProt Q8IW41).
T3 construct: purchased Eurofins (Millipore) KinaseProfiler, inferred from the naming style
T3 sequence (Q8IW41 whole entry): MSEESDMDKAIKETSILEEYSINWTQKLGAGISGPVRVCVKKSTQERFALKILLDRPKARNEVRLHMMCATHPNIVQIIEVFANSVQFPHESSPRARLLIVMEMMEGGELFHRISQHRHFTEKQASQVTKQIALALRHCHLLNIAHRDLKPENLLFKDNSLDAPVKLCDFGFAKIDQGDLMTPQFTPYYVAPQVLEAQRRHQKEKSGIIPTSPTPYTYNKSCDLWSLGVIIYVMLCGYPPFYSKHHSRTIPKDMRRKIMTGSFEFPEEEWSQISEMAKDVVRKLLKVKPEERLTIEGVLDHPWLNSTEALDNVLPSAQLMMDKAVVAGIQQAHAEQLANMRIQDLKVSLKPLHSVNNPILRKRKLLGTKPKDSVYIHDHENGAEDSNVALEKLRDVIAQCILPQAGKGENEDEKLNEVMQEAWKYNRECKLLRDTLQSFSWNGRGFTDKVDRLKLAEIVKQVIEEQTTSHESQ
On the procedure: as §1

The target of experiment [4] is T4, PKCθ(h) (Homo sapiens, UniProt Q04759).
T4 construct: purchased Eurofins (Millipore) KinaseProfiler, inferred from the naming style
As for the experimental part: as §1

Experiment [5] deals with T5, IRAK4(h) (Homo sapiens, UniProt Q9NWZ3).
T5 construct: purchased Eurofins (Millipore) KinaseProfiler, inferred from the naming style
As for the experimental part:
as §1

Experiment [6] deals with T6, mTOR(h) (Homo sapiens, UniProt P42345).
T6 construct: purchased Eurofins (Millipore) KinaseProfiler, inferred from the naming style
On the procedure: as §1

Experiment [7] deals with T7, Mnk2(h) (Homo sapiens, UniProt Q9HBH9).
T7 construct: purchased Eurofins (Millipore) KinaseProfiler, inferred from the naming style
T7 sequence (Q9HBH9 whole entry): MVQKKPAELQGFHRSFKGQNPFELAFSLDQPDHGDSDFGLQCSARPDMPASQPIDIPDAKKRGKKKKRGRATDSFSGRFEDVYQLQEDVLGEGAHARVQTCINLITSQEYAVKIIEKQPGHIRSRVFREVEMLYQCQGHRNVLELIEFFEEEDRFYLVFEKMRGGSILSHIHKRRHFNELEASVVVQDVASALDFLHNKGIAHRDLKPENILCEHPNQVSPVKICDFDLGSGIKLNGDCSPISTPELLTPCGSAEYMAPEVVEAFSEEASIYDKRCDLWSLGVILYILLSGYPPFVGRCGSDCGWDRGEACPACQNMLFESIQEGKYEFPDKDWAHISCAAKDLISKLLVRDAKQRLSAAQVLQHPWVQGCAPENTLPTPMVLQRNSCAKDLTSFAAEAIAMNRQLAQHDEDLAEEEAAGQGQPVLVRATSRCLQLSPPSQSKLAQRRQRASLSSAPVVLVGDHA
As for the experimental part: as §1

Experiment [8] addresses CHK1(h) (Homo sapiens, UniProt O14757). On the procedure:
as §1

In experiment [9] the target is ASK1(h) (Homo sapiens, UniProt Q99683). On the procedure: as §1
Experiment [10] addresses CK1γ1(h) (Homo sapiens, UniProt Q9HCP0). As for the experimental part: as §1
Experiment [11] concerns the target T8, Rse(h) (Homo sapiens, UniProt Q06418).
T8 construct: purchased Eurofins (Millipore) KinaseProfiler, inferred from the naming style
As for the experimental part: as §1

Experiment [12] has as its target IGF-1R(h) (Homo sapiens, UniProt P08069). As for the experimental part: as §1
The target in experiment [13] is eEF-2K(h) (Homo sapiens, UniProt O00418). As for the experimental part:
as §1

For experiment [14], the target named is T9, LOK(h) (Homo sapiens, UniProt O94804).
T9 construct: purchased Eurofins (Millipore) KinaseProfiler, inferred from the naming style
As for the experimental part:
as §1

For experiment [15], the target named is AMPKα1(h) (Homo sapiens, UniProt Q13131). On the procedure:
as §1

Experiment [16] deals with IKKα(h) (Homo sapiens, UniProt O15111). As for the experimental part:
as §1

Experiment [17] deals with T10, p70S6K(h) (Homo sapiens, UniProt P23443).
T10 construct: purchased Eurofins (Millipore) KinaseProfiler, inferred from the naming style
T10 sequence (P23443 whole entry): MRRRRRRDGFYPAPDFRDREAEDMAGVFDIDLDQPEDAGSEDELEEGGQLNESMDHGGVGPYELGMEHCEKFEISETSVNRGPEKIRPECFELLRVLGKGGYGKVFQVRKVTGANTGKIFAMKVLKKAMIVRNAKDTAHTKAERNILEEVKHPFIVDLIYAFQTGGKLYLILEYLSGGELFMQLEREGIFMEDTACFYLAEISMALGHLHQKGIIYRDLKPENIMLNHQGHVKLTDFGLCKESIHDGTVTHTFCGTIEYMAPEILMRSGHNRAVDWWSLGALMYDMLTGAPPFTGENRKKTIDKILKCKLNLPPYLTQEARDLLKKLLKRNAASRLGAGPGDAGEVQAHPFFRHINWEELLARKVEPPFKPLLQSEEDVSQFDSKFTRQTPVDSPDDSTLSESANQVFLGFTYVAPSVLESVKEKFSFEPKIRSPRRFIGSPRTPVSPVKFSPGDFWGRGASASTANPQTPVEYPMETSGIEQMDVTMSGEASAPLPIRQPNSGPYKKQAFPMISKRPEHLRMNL
On the procedure:
as §1

T2 sequence (Q13976 whole entry): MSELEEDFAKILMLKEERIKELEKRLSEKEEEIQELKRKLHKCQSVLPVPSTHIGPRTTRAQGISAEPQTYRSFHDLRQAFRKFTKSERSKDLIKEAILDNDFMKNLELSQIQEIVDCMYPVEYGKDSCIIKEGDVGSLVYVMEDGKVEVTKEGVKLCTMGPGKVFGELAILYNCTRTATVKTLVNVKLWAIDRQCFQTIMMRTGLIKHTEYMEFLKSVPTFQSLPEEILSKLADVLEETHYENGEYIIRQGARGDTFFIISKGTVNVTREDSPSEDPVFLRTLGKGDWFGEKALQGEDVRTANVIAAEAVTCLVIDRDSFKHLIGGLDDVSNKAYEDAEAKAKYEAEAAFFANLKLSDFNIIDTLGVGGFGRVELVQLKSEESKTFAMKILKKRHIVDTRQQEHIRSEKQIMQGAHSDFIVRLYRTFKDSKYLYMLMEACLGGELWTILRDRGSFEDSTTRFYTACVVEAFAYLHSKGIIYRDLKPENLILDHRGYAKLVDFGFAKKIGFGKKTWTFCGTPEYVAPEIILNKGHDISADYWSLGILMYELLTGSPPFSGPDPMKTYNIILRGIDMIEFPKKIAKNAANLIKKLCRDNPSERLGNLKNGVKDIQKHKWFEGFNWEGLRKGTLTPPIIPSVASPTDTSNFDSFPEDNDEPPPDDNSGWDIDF
Sequence of IGF-1R(h) (P08069 31-1367): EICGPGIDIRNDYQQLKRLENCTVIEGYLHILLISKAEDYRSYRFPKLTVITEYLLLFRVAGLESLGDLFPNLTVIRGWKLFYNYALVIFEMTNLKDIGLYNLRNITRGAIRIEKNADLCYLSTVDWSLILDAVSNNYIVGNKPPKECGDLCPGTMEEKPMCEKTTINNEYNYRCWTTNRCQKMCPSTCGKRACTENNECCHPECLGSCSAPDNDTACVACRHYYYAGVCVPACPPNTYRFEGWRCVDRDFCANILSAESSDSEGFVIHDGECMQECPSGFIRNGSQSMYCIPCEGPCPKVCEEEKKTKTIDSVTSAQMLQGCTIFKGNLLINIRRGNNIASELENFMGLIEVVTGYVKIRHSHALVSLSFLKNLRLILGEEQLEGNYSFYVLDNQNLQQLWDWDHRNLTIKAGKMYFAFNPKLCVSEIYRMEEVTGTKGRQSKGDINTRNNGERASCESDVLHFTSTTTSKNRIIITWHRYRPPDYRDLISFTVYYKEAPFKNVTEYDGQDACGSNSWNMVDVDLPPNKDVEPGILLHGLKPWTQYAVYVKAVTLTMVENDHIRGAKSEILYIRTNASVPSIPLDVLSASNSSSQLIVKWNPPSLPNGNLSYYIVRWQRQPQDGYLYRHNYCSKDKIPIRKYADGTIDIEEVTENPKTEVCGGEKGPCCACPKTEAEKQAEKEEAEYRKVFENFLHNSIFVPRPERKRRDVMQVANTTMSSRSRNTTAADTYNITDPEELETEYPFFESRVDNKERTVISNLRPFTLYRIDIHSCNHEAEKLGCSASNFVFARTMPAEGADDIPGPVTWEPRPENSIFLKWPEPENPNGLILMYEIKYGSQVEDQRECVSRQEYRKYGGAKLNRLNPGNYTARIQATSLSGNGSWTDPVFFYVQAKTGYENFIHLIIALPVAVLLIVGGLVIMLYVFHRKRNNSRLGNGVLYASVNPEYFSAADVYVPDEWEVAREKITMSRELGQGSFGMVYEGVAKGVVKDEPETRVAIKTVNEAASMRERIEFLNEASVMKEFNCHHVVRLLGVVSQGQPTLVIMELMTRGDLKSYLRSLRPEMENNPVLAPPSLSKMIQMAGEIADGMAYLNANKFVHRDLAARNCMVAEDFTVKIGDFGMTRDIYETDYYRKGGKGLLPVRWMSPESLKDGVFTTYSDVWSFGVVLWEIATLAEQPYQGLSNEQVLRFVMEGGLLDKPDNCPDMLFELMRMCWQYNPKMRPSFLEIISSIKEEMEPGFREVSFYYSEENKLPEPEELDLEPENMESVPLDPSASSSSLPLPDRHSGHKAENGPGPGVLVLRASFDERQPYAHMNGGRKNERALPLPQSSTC
Sequence of IKKα(h) (O15111 whole entry): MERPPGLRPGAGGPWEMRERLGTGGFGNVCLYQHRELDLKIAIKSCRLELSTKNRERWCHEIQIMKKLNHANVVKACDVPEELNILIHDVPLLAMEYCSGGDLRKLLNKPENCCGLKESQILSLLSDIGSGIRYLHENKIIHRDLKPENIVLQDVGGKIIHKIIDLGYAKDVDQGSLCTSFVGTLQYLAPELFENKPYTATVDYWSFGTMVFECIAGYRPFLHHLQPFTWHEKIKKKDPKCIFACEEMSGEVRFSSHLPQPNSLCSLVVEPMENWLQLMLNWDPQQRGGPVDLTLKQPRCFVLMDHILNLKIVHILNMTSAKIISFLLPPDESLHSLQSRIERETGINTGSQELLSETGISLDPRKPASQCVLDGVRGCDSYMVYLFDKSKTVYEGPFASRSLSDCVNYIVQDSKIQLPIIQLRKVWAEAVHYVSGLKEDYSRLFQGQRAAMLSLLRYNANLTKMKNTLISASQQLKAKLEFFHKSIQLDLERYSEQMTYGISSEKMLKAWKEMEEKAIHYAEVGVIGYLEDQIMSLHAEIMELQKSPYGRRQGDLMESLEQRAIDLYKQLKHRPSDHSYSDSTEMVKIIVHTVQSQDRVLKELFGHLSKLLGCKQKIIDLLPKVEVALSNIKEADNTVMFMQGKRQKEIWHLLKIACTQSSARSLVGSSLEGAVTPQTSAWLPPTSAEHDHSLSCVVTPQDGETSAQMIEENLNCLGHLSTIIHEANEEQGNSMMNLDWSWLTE
Sequence of CHK1(h) (O14757 whole entry): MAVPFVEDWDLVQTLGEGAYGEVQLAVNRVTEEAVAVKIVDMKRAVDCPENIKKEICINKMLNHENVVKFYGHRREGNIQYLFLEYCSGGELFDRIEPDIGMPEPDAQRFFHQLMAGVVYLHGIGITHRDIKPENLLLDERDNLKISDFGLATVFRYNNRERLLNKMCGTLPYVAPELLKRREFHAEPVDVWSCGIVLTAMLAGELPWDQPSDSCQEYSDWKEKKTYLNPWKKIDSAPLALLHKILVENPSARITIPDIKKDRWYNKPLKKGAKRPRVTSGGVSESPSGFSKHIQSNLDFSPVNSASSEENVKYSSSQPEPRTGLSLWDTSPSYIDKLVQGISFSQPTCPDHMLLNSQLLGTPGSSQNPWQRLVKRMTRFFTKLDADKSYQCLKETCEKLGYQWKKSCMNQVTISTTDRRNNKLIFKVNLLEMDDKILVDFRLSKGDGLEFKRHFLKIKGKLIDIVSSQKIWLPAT

Turning to `NC(=O)c1cc(Cn2cc(-c3c(-c4ccc(Cl)cc4)nc4c(F)cc(F)cn34)nn2)ccc1Cl` [Compound 11, 2-Chloro-5-((4-(2-(4-chlorophenyl)-6,8-difluoroimidazo[1,2-a]pyridin-3-yl)-1H-1,2,3-triazol-1-yl)methyl)-benzamide], the activity at 1 µM in experiment [1] was 92%; in experiment [2], 85%; in experiment [3], 81%; in [4], 90%; in experiment [5], 112%; in experiment [6], 96%. The activity at 1 µM was determined as 86% in experiment [7]; 93% in [8]; 91% in experiment [9]; 100% in experiment [10]; 109% in experiment [11]; 99% in [12]. Moreover, the activity at 1 µM in [13] was determined as 112%; in [14] it was 94%; in experiment [15] it was 102%; in experiment [16], 104%; in experiment [17] it was 105%.
